# Source: US7060731B2, “Use of amines” (Amersham Health AS, priority 2000, dated 2006)
# What was measured:
# Format in all cases: biochemical
# [1] = tested on: alternative pathway of complement (ZAS activated); assay: In vitro complement activation of human serum by Zymosan A (ZAS), comparison of meglumine analogues; details: FIG. 6
# Method: (§1) A method for investigation of the ability of different agents to activate the complement system in vitro is described. Briefly, human serum is exposed to the different agents for 30 min at 37Ec. The activation is stopped by placing the samples in an ice-water bath and immediately add cold EDTA-solution at a final concentration of 15 mM. The latter stops further activation by chelating calcium and magnesium ions. The degree of activation is subsequently determined by using commercially available enzyme immunoassays (EIA) for determination of specific complement activation products. In these experiments C3a-desArg or SC5b-9 have been used, representing early pathway activation and terminal pathway activation respectively.
# In order to investigate and compare the inhibitory effects on in vitro complement activation of other compounds with structural resemblance to meglumine (N-methyl-D-glucamine), a new study was performed. The new test substances chosen were N-methyl-mannosamine, 3-methylamino-1,2-propanediol and 2-(methylamino)ethanol.
# Human serum was exposed to Zymosan A (ZAS), a strong activator of the alternative pathway of complement, at three different concentrations (5, 2 and 1 mg/mL serum). The complement activation induced by ZAS alone was compared with that obtained when adding the different test substances at two different concentrations to the ZAS-activated serum. In addition to the three chosen test substances meglumine was included for comparison.
# To investigate the inhibitory effects of the test substances at a concentration corresponding to what is given of meglumine when injecting contrast agents such as Hexabrix, a concentration of 5.3 mg/mL serum was used. […] Complement activation induced by ZAS both at 2 and 1 mg/mL, was inhibited by meglumine, 3-methylamino-1,2-propanediol and 2-(methylamino)-ethanol. […] It should be noted that although the concentration of ZAS was reduced, the complement activation obtained was much higher than what would be expected in vivo. Thus meglumine, 3-methylamino-1,2-propanediol and 2-(methylamino)-ethanol seem to be very effective in controlling complement activation.
# [2] = tested on: complement system (early pathway activation, C3a-desArg); assay: In vitro complement activation by X-ray contrast agents in human serum, C3a-desArg EIA; details: for inhibition of complement activation induced by Visipaque: substance added to Visipaque, human serum
# Method: A method for investigation of the ability of different agents to activate the complement system in vitro is described. Briefly, human serum is exposed to the different agents for 30 min at 37Ec. The activation is stopped by placing the samples in an ice-water bath and immediately add cold EDTA-solution at a final concentration of 15 mM. The latter stops further activation by chelating calcium and magnesium ions. The degree of activation is subsequently determined by using commercially available enzyme immunoassays (EIA) for determination of specific complement activation products. In these experiments C3a-desArg or SC5b-9 have been used, representing early pathway activation and terminal pathway activation respectively. The concentrations of contrast agents used in vitro in these experiments is based on the following assumptions: One of the applied clinical doses (ACD) used in vivo is 150 mL Visipaque at a concentration of 320 mg I/mL. For a person of 70 kg with a blood volume of about 5.5 L and a plasma fraction of about 3.5 L, the ACD corresponds to 13.7 mg I/mL serum in the test system. Five times this concentration (68.5 mgI/mL serum) was used for all contrast agents to cover maximum blood concentration immediately after bolus injection of the substances. Hexabrix and Visipaque with concentrations of 320 mg I/mL and phosphate buffered saline (at an equal volume) were added to human serum. Subsequently in vitro complement activation was performed as described previously followed by the determination of C3a-desArg. […] In order to investigate the effect of meglumine on complement activation, meglumine at different concentrations were added to Visipaque and in vitro complement activation was performed followed by determination of C3a-desArg. […] An expanded concentration response experiment (tighter concentration range) was subsequently performed. Ten concentrations of meglumine ranging from 0–18% (w/w) of the iodine content in Visipaque were used. […] The effects of meglumine (39% w/w of mg I/ml) on other non-ionic x-ray contrast agents were investigated. Iopamidol, Omnipaque, Ultravist and Visipaque were added to human serum at a final concentration of 68.5 mg I/mL. Subsequently in vitro complement activation was performed, followed by determination of C3a-desArg as previously described in the section “In vitro complement activation” and in Example 1.
# [3] = tested on: coagulation system (extrinsic pathway); assay: Prothrombin time test (commercial)
# Method: (§2) As the body cascade systems are connected, the effects of meglumine on the coagulation system were investigated, by using commercial tests for prothrombin time (extrinsic pathway) and partial activated thromboplastin time (intrinsic pathway). Briefly, meglumine was added to the test systems at final concentrations of 4 mg/mL and 25 mg/mL. In the prothrombin time test meglumine increased the coagulation time by 20.5 and 72.7 seconds respectively. In the partial activated thromboplastin time test the coagulation time was increased by 6.2 and 117.9 seconds respectively. The control plasma heparin, supplied with the kit, increased the coagulation time by 36.4 seconds compared with normal plasma. Meglumine seems to prolong the coagulation time in a concentration dependent way, exceeding the time obtained for heparin plasma at the highest concentration used.
# [4] = tested on: classical pathway of complement (heat aggregated IgG activated, SC5b-9); assay: In vitro complement activation by heat aggregated IgG in human serum, SC5b-9 EIA; details: heat aggregated IgG 5 mg/mL serum, meglumine 390 mg/mL, FIG. 5
# Method: as §1
# (§3) The alternative and classical pathways represent the main ways of activating the complement system. The ability of meglumine to inhibit these pathways were investigated by using well known activators, Zymosan A (alternative pathway activator) and heat aggregated IgG (classical pathway activator). Zymosan A at 10 mg/mL serum or Zymosan A added meglumine at a final concentration of 39% (w/v) (390 mg/mL) was added to human serum and incubated for 1 hour at 37^EC on a vial roller. To obtain heat aggregated IgG, rabbit IgG at 30 mg/mL was incubated for 30 min at 65EC on a vial roller. […] The samples were analysed for SC5b-9. […]
# [5] = tested on: alternative pathway of complement (Zymosan A activated, SC5b-9); assay: In vitro complement activation by Zymosan A in human serum, SC5b-9 EIA; details: Zymosan A 10 mg/mL serum, meglumine 390 mg/mL, 1 hour 37 C, FIG. 4
# Method: as §1, §3
# [6] = tested on: coagulation system (intrinsic pathway); assay: Partial activated thromboplastin time test (commercial)
# Method: as §2
# [7] = ZAS 5 mg/mL serum, test substance 390 mg/mL
# [8] = ZAS 2 and 1 mg/mL serum, test substance 5.3 mg/mL serum
SMILES,"inhibition of in vitro complement activation induced by ZAS [1, 7]","inhibition of in vitro complement activation induced by ZAS [1, 8]",inhibition of complement activation induced by Visipaque ([2]; C3a-desArg),also measured
CNCCO [2-(methylamino)-ethanol],inhibited,inhibited,–,–
"CNCC(O)CO (centres unmarked) [3-methylamino-1,2-propanediol]",inhibited,inhibited,–,–
"OC[C@@H](O)[C@@H](O)[C@H](O)[C@H](O)CO [Mannitol, reference compound]",–,–,no inhibitory effects,–
CN[C@@H]1C(O)O[C@H](CO)[C@@H](O)[C@@H]1O (some centres unmarked) [N-methyl-mannosamine],inhibited,weaker inhibitory effect,–,–
"CNC[C@H](O)[C@@H](O)[C@H](O)[C@H](O)CO [meglumine, N-methyl-D-glucamine]",inhibited,inhibited,abolished the complement activation,"increase of coagulation time, prothrombin time test ([3]; final concentration 4 mg/mL): 20.5 s; increase of coagulation time, prothrombin time test ([3]; final concentration 25 mg/mL): 72.7 s; inhibition of classical pathway activation of complement (SC5b-9) [4]: inhibited; inhibition of alternative pathway activation of complement (SC5b-9) [5]: inhibited; increase of coagulation time, partial activated thromboplastin time test ([6]; final concentration 4 mg/mL): 6.2 s; increase of coagulation time, partial activated thromboplastin time test ([6]; final concentration 25 mg/mL): 117.9 s; inhibition of Visipaque-induced complement activation after pH adjustment ([2]; Visipaque with meglumine (pH 11) vs adjusted with HCl to pH 7.4, FIG. 3): not due to the high pH; meglumine concentration at which an inhibitory effect was observed ([2]; meglumine 0–32.5% added to Visipaque, C3a-desArg, FIG. 1): 8–32.5 % (w/w) of the iodine content in Visipaque; inhibition of in vitro complement activation by non-ionic contrast agents (C3a-desArg) ([2]; meglumine 39% w/w of mg I/ml, Iopamidol, Omnipaque, Ultravist and Visipaque at 68.5 mg I/mL serum, FIG. 7): inhibited; lowest concentration of meglumine able to inhibit the complement activation ([2]; ten concentrations 0–18% (w/w) of iodine content in Visipaque, C3a-desArg, FIG. 2): 6 % of the iodine content"
